Several values for one entry are separate records, joined by “and”; a condition that tells them apart may be missing. Equal values may be shown once.
Assays:
Assay type in all cases: functional, Homo sapiens
[1] = tested on: U2OS; test: (§1) Here: values are normalized to the negative (DMSO; defined as 0% autophagy induction) and positive (250nM Torin1; mTOR inhibitor; defined as maximal inducer of autophagy = 100%) control compounds and represented as % of autophagy induction. […] The impact of autophagy induction on cells is complex and depends on the affected target. As such, the magnitude of a phenotype may not be equally mirrored in the %-value of autophagy induction and vice versa. The dynamics of the induction may indicate the mode of activation: e.g. activation via phosphorylation or a signaling cascade may occur fast, while activation via transcription factors may take considerably longer. […] Of note, treatment concentrations may be sub-optimal for specific compounds, leading to false negative annotations.; conditions: Culturing Media DMEM, 1 % Penicillin/Streptomycin, 10% Fetal bovin serum Add-On: No, Screening Media Control DMEM, Screening Media Samples DMEM
[2] = tested on: TERT-RPE1; test: as §1; conditions: Culturing Media DMEM/F12 (1:1), 1 % Penicillin/Streptomycin, 10% Fetal bovin serum Add-On: No, Screening Media Control DMEM/F12 (1:1), Screening Media Samples DMEM/F12 (1:1)
[3] = tested on: U2OS; test: as §1; conditions: Culturing Media DMEM, 1 % Penicillin/Streptomycin, 10% Fetal bovin serum Add-On: No, Screening Media Control DMEM, Screening Media Samples DMEM; remark: listed apart in the source
[4] = Compound Concentration 0.5 uM, Timepoint 12 hours
[5] = Compound Concentration 0.5 uM, Timepoint 24 hours
[6] = Compound Concentration 0.5 uM, Timepoint 36 hours
[7] = Compound Concentration 0.5 uM, Timepoint 60 hours
[8] = Compound Concentration 2 uM, Timepoint 12 hours
[9] = Compound Concentration 2 uM, Timepoint 24 hours
[10] = Compound Concentration 2 uM, Timepoint 36 hours
[11] = Compound Concentration 2 uM, Timepoint 60 hours
[12] = Compound Concentration 10 uM, Timepoint 12 hours
[13] = Compound Concentration 10 uM, Timepoint 24 hours
[14] = Compound Concentration 10 uM, Timepoint 36 hours
[15] = Compound Concentration 10 uM, Timepoint 60 hours

Row | Structure (SMILES) | autophagy induction [1, 4] [%] | autophagy induction [1, 5] [%] | autophagy induction [1, 6] [%] | autophagy induction [1, 7] [%] | autophagy induction [1, 8] [%] | autophagy induction [1, 9] [%] | autophagy induction [1, 10] [%] | autophagy induction [1, 11] [%] | autophagy induction [1, 12] [%] | autophagy induction [1, 13] [%] | autophagy induction [1, 14] [%] | autophagy induction [1, 15] [%] | autophagy induction [3, 4] [%] | autophagy induction [3, 5] [%] | autophagy induction [3, 6] [%] | autophagy induction [3, 7] [%] | autophagy induction [3, 8] [%] | autophagy induction [3, 9] [%] | autophagy induction [3, 10] [%] | autophagy induction [3, 11] [%] | further results
1 | CCCSc1nc(N[C@@H]2C[C@H]2c2ccc(F)c(F)c2)c2nnn([C@@H]3C[C@H](OCCO)[C@@H](O)[C@H]3O)c2n1 [TICAGRELOR] | -3.602 | -3.07 | -60.4394 | -2.316 | -5.583 | -3.174 | -60.5106 | -3.163 | -2.648 | 1.759 | -58.5177 | -2.994 | -9.844 | -12.5107 | -15.2375 | -18.2861 | 2.324 | -7.302 | -3.06 | -7.4162 | autophagy induction ([2]; Compound Concentration 0.5 uM, Timepoint 12 hours, 12 h, 0.5 µM): -0.3223% and -0.8015%; autophagy induction ([2]; Compound Concentration 0.5 uM, Timepoint 24 hours, 24 h, 0.5 µM): 2.932% and -1.64%; autophagy induction ([2]; Compound Concentration 0.5 uM, Timepoint 36 hours, 36 h, 0.5 µM): 3.182% and -0.1292%; autophagy induction ([2]; Compound Concentration 0.5 uM, Timepoint 60 hours, 60 h, 0.5 µM): 6.614% and -2.465%; autophagy induction ([2]; Compound Concentration 2 uM, Timepoint 12 hours, 12 h, 2 µM): -2.164% and 3.738%; autophagy induction ([2]; Compound Concentration 2 uM, Timepoint 24 hours, 24 h, 2 µM): 2.13% and 2.219%; autophagy induction ([2]; Compound Concentration 2 uM, Timepoint 36 hours, 36 h, 2 µM): 3.83% and 3.863%; autophagy induction ([2]; Compound Concentration 2 uM, Timepoint 60 hours, 60 h, 2 µM): 10.3636% and 4.688%; autophagy induction ([2]; Compound Concentration 10 uM, Timepoint 12 hours, 12 h, 10 µM): 2.799% and 5.117%; autophagy induction ([2]; Compound Concentration 10 uM, Timepoint 24 hours, 24 h, 10 µM): 8.7588% and 7.492%; autophagy induction ([2]; Compound Concentration 10 uM, Timepoint 36 hours, 36 h, 10 µM): 16.5266% and 7.688%; autophagy induction [3, 12]: -4.369%; autophagy induction [3, 13]: -2.6496%; autophagy induction [3, 14]: -0.7195%; autophagy induction [3, 15]: 1.979%
2 | Cc1cc(C)cc(C(=O)N(C)[C@H](Cc2ccc(-c3ccccc3)cc2)C(=O)N[C@@H](Cc2c[nH]c3ccccc23)C(=O)O)c1 | -3.328 | -1.823 | -2.116 | -0.69 | 4.263 | 2.513 | -0.01148 | -0.5825 | 3.263 | 3.281 | 1.189 | 0.3614 | 20.0451 | 13.0827 | 8.17 | 4.398 | 5.392 | 1.718 | -3.298 | -11.258 | autophagy induction [2, 4]: -14.7352%; autophagy induction [2, 5]: -10.2057%; autophagy induction [2, 6]: -9.628%; autophagy induction [2, 7]: -6.49%; autophagy induction [2, 8]: -8.48%; autophagy induction [2, 9]: -8.155%; autophagy induction [2, 10]: -8.294%; autophagy induction [2, 11]: -6.276%; autophagy induction [2, 12]: -5.809%; autophagy induction [2, 13]: -2.795%; autophagy induction [2, 14]: -2.603%; autophagy induction [2, 15]: -5.126%; autophagy induction [3, 12]: 17.6344%; autophagy induction [3, 13]: 16.7447%; autophagy induction [3, 14]: 13.7232%; autophagy induction [3, 15]: 11.2064%

From ChEMBL document CHEMBL5724696, “Autophagy assay results for EUbOPEN Chemogenomics Library” (2024)
